What all share (format): in vivo
Series [1] relates to rice plant. As to the kind of experiment: Test Example 5: effect on crop by foliage application, plastic box (symbol b). The note with it: 320 g/ha, 3 weeks after application. The method in brief: (§1)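 Greenhouse culture at 25° C. to 30° C. followed spot-like sowing into sterilized diluvial soil, with seed covered by roughly 1.5 cm of soil.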
Series [2] deals with Leptochloa chinensis. As to the kind of experiment: Test Example 3: herbicidal effect by foliage application, Wagner pot (symbol D). The note with it: application herbicide amount 320 g/ha. The method in brief:
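Scoring took place 3 weeks after application, using fixed criteria. Plants had been raised from seed for 14 days at 25 to 30 °C in submerged alluvial soil before a diluted emulsion of the test compound was sprayed uniformly on the leaves.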

Series [3] deals with beet. As to the kind of experiment: Test Example 5: effect on crop by foliage application, plastic box (symbol f). The note with it: 320 g/ha, 3 weeks after application. Put shortly:
as §1

In series [4] the test system is Chenopodium album. As to the kind of experiment: Test Example 5: herbicidal effect by foliage application, plastic box (symbol O). The note with it: 320 g/ha, 3 weeks after application. The method in brief: (§2)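 Herbicide, formulated as an emulsion and diluted in water, is sprayed onto the aerial parts of 14-day seedlings. These were grown at 25° C. to 30° C. in sterilized diluvial soil; effects are graded after 3 weeks.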

In series [5] the test system is corn. As to the kind of experiment: Test Example 5: effect on crop by foliage application, plastic box (symbol c). The note with it: 320 g/ha, 3 weeks after application. The method in brief:
as §1

Series [6] deals with Amaranthus retroflexus. As to the kind of experiment: Test Example 4: herbicidal effect by soil treatment (symbol N). The method in brief: (§3)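 Seeds were sown in sterilized diluvial soil, covered with about 1.5 cm of soil, and the soil surface was sprayed with a water-diluted emulsion of the compound at a predetermined rate. Plants grew in a greenhouse at 25° C. to 30° C.; effects were scored visually 3 weeks after application.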

Series [7] deals with Echinochloa oryzacola Vasing. As to the kind of experiment: Test Example 2: herbicidal activity, application during weed generation in submerged conditions (symbol A). The note with it: Table 23; application herbicide amount 320 g/ha; grade 0-5 by criteria of Test Example 1. Put shortly:
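Read-out: herbicidal effect on each species rated on a visual scale 3 weeks after treatment. Plants were raised together from seed in flooded alluvial soil (4 cm water) at 25° C. to 30° C. and treated at one to two leaves by water-surface application of diluted emulsion.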

Series [8] has as its system Setaria viridis. As to the kind of experiment: Test Example 5: herbicidal effect by foliage application, plastic box (symbol G). The note with it: 320 g/ha, 3 weeks after application. Put shortly:
as §2

Series [9] deals with wheat. As to the kind of experiment: Test Example 4: effect on crop by soil treatment (symbol e). The note with it: for e: wheat, effect grade on crop: 320 g/ha. The method in brief: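 Plants grew in a 25° C. to 30° C. greenhouse after spot-sowing of seeds, including beet, rapeseed, wheat and rice, into sterilized diluvial soil under roughly 1.5 cm of cover soil.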
Series [10] deals with Alopecurus myosuroides. As to the kind of experiment: Test Example 5: herbicidal effect by foliage application, plastic box (symbol J). The note with it: 320 g/ha, 3 weeks after application. The method in brief: as §2
The subject of series [11] is Setaria viridis. As to the kind of experiment: Test Example 4: herbicidal effect by soil treatment (symbol G). The method in brief: as §3
The subject of series [12] is wheat. As to the kind of experiment: Test Example 5: effect on crop by foliage application, plastic box (symbol e). The note with it: 320 g/ha, 3 weeks after application. Put shortly:
as §1

Setting [13] is: application herbicide amount 320 g/ha.

The record followed here is patent US11000033B2, “Ketone or oxime compound, and herbicide” (NISSAN CHEMICAL CORPORATION, priority 2014, dated 2021).

`CON=C(C)CC1CC(O)=C(c2c(C)cc(-c3cccc(Cl)c3)cc2C)C1=O` (mixture of isomers) [6-034]: the “b: directly sowed rice plant, effect on crop grade” value in series [1] is listed as 5 (Herbicidal ratio of 90% or more (almost completely withered)). Besides, in series [2], the “herbicidal effect on D (Leptochloa chinensis), grade 0-5” value (shortened to “herbicidal effect on D”) is recorded as 5 (Herbicidal ratio of 90% or more (almost completely withered)). Further, the “f: beet, effect on crop grade” value in [3] is 0 (Herbicidal ratio of 5% or lower (almost no effect)). The “O: Chenopodium album, herbicidal effect grade” value in series [4] was 3 (Herbicidal ratio of 40% or higher and lower than 70%). In addition, the “c: corn, effect on crop grade” value in [5] is 5 (Herbicidal ratio of 90% or more (almost completely withered)). Moreover, the “N: Amaranthus retroflexus, herbicidal effect grade” value (shortened to “N: Amaranthus retroflexus”) in series [6] (setting [13]) is 2 (Herbicidal ratio of 20% or higher and lower than 40%). The “Herbicidal effect grade, A: Echinochloa oryzacola Vasing.” value in [7] is 5 (Herbicidal ratio of 90% or more (almost completely withered)). Besides, the “G: Setaria viridis, herbicidal effect grade” value in series [8] and in series [11] (setting [13]) was 5 (Herbicidal ratio of 90% or more (almost completely withered)) each time. The “e: wheat, effect on crop grade” value in [9] (setting [13]) and in [12] was 0 (Herbicidal ratio of 5% or lower (almost no effect)) each time. The “J: Alopecurus myosuroides, herbicidal effect grade” value in series [10] is 5 (Herbicidal ratio of 90% or more (almost completely withered)).

In the case of `CON=C(C)CC1CC(OC(=O)C(C)(C)c2ccc(Cl)cc2)=C(c2c(C)cc(C)cc2C)C1=O` (stereo not drawn) [1-148], in series [1], the “b: directly sowed rice plant, effect on crop (criteria 0-5)” value is on record as 5 (Herbicidal ratio of 90% or more (almost completely withered)). For the same molecule, the “herbicidal effect on D” value in [2] was 5 (Herbicidal ratio of 90% or more (almost completely withered)). The “f: beet, effect on crop (criteria 0-5)” value in series [3] is 3 (Herbicidal ratio of 40% or higher and lower than 70%). For the same molecule, in series [4], the “O: Chenopodium album, herbicidal effect (criteria 0-5)” value was 1 (Herbicidal ratio of 5% or higher and lower than 20%). The “c: corn, effect on crop (criteria 0-5)” value in [5] was 4 (Herbicidal ratio of 70% or higher and lower than 90%). Moreover, in series [6] (320 g/ha), the “N: Amaranthus retroflexus” value is 2 (Herbicidal ratio of 20% or higher and lower than 40%). Moreover, the “Herbicidal effect grade, A: Echinochloa oryzacola Vasing.” value in [7] is 5 (Herbicidal ratio of 90% or more (almost completely withered)). Further, in [8], the “G: Setaria viridis, herbicidal effect (criteria 0-5)” value was 5 (Herbicidal ratio of 90% or more (almost completely withered)). In addition, the “e: wheat, effect grade on crop” value in series [9] was 0 (Herbicidal ratio of 5% or lower (almost no effect)). Moreover, the “J: Alopecurus myosuroides, herbicidal effect (criteria 0-5)” value in series [10] is reported as 5 (Herbicidal ratio of 90% or more (almost completely withered)). The “G: Setaria viridis, herbicidal effect grade” value in series [11] (320 g/ha) is given as 5 (Herbicidal ratio of 90% or more (almost completely withered)). In addition, the “e: wheat, effect on crop (criteria 0-5)” value in [12] is 5 (Herbicidal ratio of 90% or more (almost completely withered)).

Regarding `C#CCOC1=C(c2c(C)cc(C)cc2C)C(=O)C(CC(C)=NOC)C1` (stereo not drawn) [1-008], the “b: directly sowed rice plant, effect on crop grade” value in series [1] was 4 (Herbicidal ratio of 70% or higher and lower than 90%). The “herbicidal effect on D” value in series [2] was 5 (Herbicidal ratio of 90% or more (almost completely withered)). Further, in series [3], the “f: beet, effect on crop grade” value is recorded as 0 (Herbicidal ratio of 5% or lower (almost no effect)). The “O: Chenopodium album, herbicidal effect grade” value in [4] is reported as 0 (Herbicidal ratio of 5% or lower (almost no effect)). Moreover, the “c: corn, effect on crop grade” value in series [5] is reported as 0 (Herbicidal ratio of 5% or lower (almost no effect)). Moreover, the “N (Amaranthus retroflexus) herbicidal effect grade” value in series [6] (setting [13]) is recorded as 0 (Herbicidal ratio of 5% or lower (almost no effect)). Further, the “Herbicidal effect grade, A: Echinochloa oryzacola Vasing.” value in series [7] was 5 (Herbicidal ratio of 90% or more (almost completely withered)). In addition, the “G: Setaria viridis, herbicidal effect grade” value in [8] is recorded as 5 (Herbicidal ratio of 90% or more (almost completely withered)). For the same molecule, the “e (wheat) effect on crop grade” value in series [9] (setting [13]) was 0 (Herbicidal ratio of 5% or lower (almost no effect)). The “J: Alopecurus myosuroides, herbicidal effect grade” value in [10] is on record as 5 (Herbicidal ratio of 90% or more (almost completely withered)). Also, the “G (Setaria viridis) herbicidal effect grade” value in series [11] (setting [13]) was 4 (Herbicidal ratio of 70% or higher and lower than 90%). Further, the “e: wheat, effect on crop grade” value in series [12] is given as 0 (Herbicidal ratio of 5% or lower (almost no effect)).

As for `CCOC(=O)C(CC)(C(C)=O)C1CC(O)=C(c2c(C)cc(C)cc2C)C1=O` (stereo not drawn) [2-012], the “b: directly sowed rice plant, effect on crop grade” value in series [1] is 4 (Herbicidal ratio of 70% or higher and lower than 90%). Further, the “herbicidal effect on D” value in series [2] is reported as 0 (Herbicidal ratio of 5% or lower (almost no effect)). In addition, in series [3], the “f: beet, effect on crop grade” value is reported as 0 (Herbicidal ratio of 5% or lower (almost no effect)). In series [4], the “O: Chenopodium album, herbicidal effect grade” value is on record as 0 (Herbicidal ratio of 5% or lower (almost no effect)). In addition, the “c: corn, effect on crop grade” value in series [5] is listed as 0 (Herbicidal ratio of 5% or lower (almost no effect)). The “N: Amaranthus retroflexus” value in series [6] (setting [13]) is reported as 0 (Herbicidal ratio of 5% or lower (almost no effect)). Also, the “Herbicidal effect grade, A: Echinochloa oryzacola Vasing.” value in series [7] is listed as 0 (Herbicidal ratio of 5% or lower (almost no effect)). The “G: Setaria viridis, herbicidal effect grade” value in series [8] and in [11] (setting [13]) was 0 (Herbicidal ratio of 5% or lower (almost no effect)) each time. The “e: wheat, effect on crop grade” value in [9] (setting [13]) and in series [12] was 0 (Herbicidal ratio of 5% or lower (almost no effect)) throughout. For the same molecule, the “J: Alopecurus myosuroides, herbicidal effect grade” value in series [10] was 1 (Herbicidal ratio of 5% or higher and lower than 20%).

As to `CON=C(C)CC1CC(OS(=O)(=O)c2ccc(C)cc2)=C(c2c(C)cc(C)cc2C)C1=O` (stereo not drawn) [1-161], the “b: directly sowed rice plant, effect on crop grade” value in series [1] was 3 (Herbicidal ratio of 40% or higher and lower than 70%). Moreover, the “herbicidal effect on D” value in [2] is recorded as 5 (Herbicidal ratio of 90% or more (almost completely withered)). In addition, the “f: beet, effect on crop grade” value in [3] was 0 (Herbicidal ratio of 5% or lower (almost no effect)). Besides, in [4], the “O: Chenopodium album, herbicidal effect grade” value is listed as 0 (Herbicidal ratio of 5% or lower (almost no effect)). Besides, in series [5], the “c: corn, effect on crop grade” value was 1 (Herbicidal ratio of 5% or higher and lower than 20%). Further, in series [6] (320 g/ha), the “N: Amaranthus retroflexus” value is 0 (Herbicidal ratio of 5% or lower (almost no effect)). Further, the “Herbicidal effect grade, A: Echinochloa oryzacola Vasing.” value in [7] is given as 5 (Herbicidal ratio of 90% or more (almost completely withered)). The “G: Setaria viridis, herbicidal effect grade” value in series [8] and in series [11] (320 g/ha) was 0 (Herbicidal ratio of 5% or lower (almost no effect)) throughout. Also, the “e: wheat, effect grade on crop” value in [9] is 3 (Herbicidal ratio of 40% or higher and lower than 70%). Also, the “J: Alopecurus myosuroides, herbicidal effect grade” value in [10] is on record as 5 (Herbicidal ratio of 90% or more (almost completely withered)). For the same molecule, the “e: wheat, effect on crop grade” value in series [12] is 2 (Herbicidal ratio of 20% or higher and lower than 40%).

Consider `COCC(=O)CC1CC(O)=C(c2c(C)cc(C)cc2C)C1=O` (stereo not drawn) [2-007], for which the “b: directly sowed rice plant, effect on crop grade” value in series [1] is 3 (Herbicidal ratio of 40% or higher and lower than 70%). Also, in series [2], the “herbicidal effect on D” value is listed as 5 (Herbicidal ratio of 90% or more (almost completely withered)). Besides, in [3], the “f: beet, effect on crop grade” value is recorded as 0 (Herbicidal ratio of 5% or lower (almost no effect)). For the same molecule, the “O: Chenopodium album, herbicidal effect grade” value in [4] was 0 (Herbicidal ratio of 5% or lower (almost no effect)). Besides, in series [5], the “c: corn, effect on crop grade” value is 1 (Herbicidal ratio of 5% or higher and lower than 20%). The “N: Amaranthus retroflexus” value in series [6] (setting [13]) is 0 (Herbicidal ratio of 5% or lower (almost no effect)). In series [7], the “Herbicidal effect grade, A: Echinochloa oryzacola Vasing.” value is 3 (Herbicidal ratio of 40% or higher and lower than 70%). Further, the “G: Setaria viridis, herbicidal effect grade” value in series [8] was 0 (Herbicidal ratio of 5% or lower (almost no effect)); in [11] (setting [13]), 4 (Herbicidal ratio of 70% or higher and lower than 90%). In addition, the “e: wheat, effect on crop grade” value in series [9] (setting [13]) and in [12] was 0 (Herbicidal ratio of 5% or lower (almost no effect)) in each case. The “J: Alopecurus myosuroides, herbicidal effect grade” value in [10] is 4 (Herbicidal ratio of 70% or higher and lower than 90%).
